These results are taken from patent US6051557A, “Methods of enhancing functioning of the upper gastrointestinal tract” (1149336 Ontario Inc., priority 1998, dated 2000).

Common to all, as to assay type: in vivo
The test system of experiment [1] is mucosal epithelium and muscle layer of the esophagus. Briefly: BrdU cell proliferation in mouse esophagus. The settings on record: female CD1 mice, 2.5 μg s.c. twice daily, 50 hr period, vs PBS. The source says:
In this experiment, the effect of GLP-2 on cell proliferation of the mucosal epithelium and muscle layer of the esophagus was examined.
Female CD1 mice (6 weeks of age, approx. 25 g, Charles River) were housed in plastic bottom, wire lid cages and maintained on a 12 hr light/dark cycle and allowed chow and water ad libitum. The mice were weighed using a Mettler PJ300 scale and randomly allocated to either the control group (phosphate buffer saline injection ("PBS")) or the treatment group (human [Gly^2 ]GLP-2 injection). Each control or treatment group consisted of 2 mice housed together in 1 cage.
The female CD1 mice were treated (subcutaneously) with either human [Gly^2 ]GLP-2 2.5 μg or PBS alone, twice daily (8 a.m. and 6 p.m.) for 2 days prior to the bromodeoxyuridine ("BrdU") injection (50 ug/g body weight, in 0.5 ml). The mice received a total of 5 injections of either human [Gly^2 ]GLP-2 or saline over the previous 50 hours. Mice were fasted 21 hours before sacrifice. The mice were sacrificed 2 hours after receiving the BrdU injection. Upon sacrifice, sections of distal esophagus (the last 2 cm of esophagus adjacent to the gastroduodenal junction) were taken for histological analysis.
The esophageal tissues were fixed in 10% buffered formalin for over 24 hours and then placed in 70% alcohol prior to processing. […]

The next experiment concerns esophagus. Briefly: total protein content of mouse esophagus (modified Bradford assay). The settings on record: female CD1 mice, 2.5 ug s.c. twice daily for 10 days, vs PBS. The protocol:
In this experiment, the effect of human [Gly^2 ]GLP-2 on protein synthesis in the mouse esophagus was examined. Female CD1 mice (6 weeks old) were housed and fed as described in Example 1. Two groups of mice (n=5 per group) were treated twice daily (subcutaneously) with either 0.5 ml PBS alone (control) or 2.5 ug in 0.5 ml PBS for 10 days. Following treatment, mice were anesthetized with CO2 and sacrificed for analysis. One (1) cm segments of esophagus tissue, between 2-4 cm proximal to the gastroduodenal junction, were harvested for analysis of total cellular protein. The 1 cm esophageal segments were placed in 1 ml of PBS and homogenized using a Polytron. Aliquots of the homogenate were taken for protein determination of protein content using the modified Bradford assay (BIORAD).

For another experiment, the system named is stomach. Briefly: stomach mass after oral administration in drinking water. Conditions: female CD1 mice, approx. 100 μg per day in drinking water, 12 days, p<0.05 vs normal drinking water. Here is the method: In this experiment, the effect of GLP-2 on the stomach mass was examined. Female CD1 mice (6 weeks old) were treated with human [[…] ]GLP-2 by oral administration in drinking water. The drinking water contained 4.3 μg/ml of human [[…] ]GLP-2 and was prepared fresh daily. Each mouse received approximately 100 μg of human [[…] ]GLP-2 per day. Following 12 days of treatment the mice were fasted for 24 hours, anesthetized with CO2 and sacrificed. The stomach of each mouse was removed and weighed.

Experiment [2] deals with indomethacin induced mucosal epithelial damage. Briefly: indomethacin induced gastroenterocolitis in mice. Conditions: 0.75 μg s.c. twice daily. The source says: In this experiment, the prophylactic and therepeutic effect of GLP-2 on indomethacin induced mucosal epithelial damage was studied.
GLP-2 administration to mice and rats stimulates mucosal growth in both the small and large intestine via activation of crypt cell proliferation and inhibition of enterocyte apoptosis. To address the possibility that GLP-2 may be useful for the therapeutic and/or prophylactic treatment of mucosal epithelial damage, we have studied the use of a novel human GLP-2 analog, h[Gly^2 ]-GLP-2, in mice with experimental indomethacin induced gastroenterocolitis.
Six to eight week old female CD1 mice (approximately 22-28 g, Charles River) were housed in plastic bottom, wire lid cages and maintained on a 12 hr light/dark cycle and allowed chow and water ad libitum throughout the study. The day prior to commencing the experiment, mice were weighed using a Mettler PJ300 scale and randomly allocated to a treatment group. Each treatment group consisted of 5 mice housed together. Subcutaneous injections of PBS or h[Gly^2 ]-GLP-2 peptide were given in the right hind quarter twice a day at 9 am and 7 pm. Injections started 4 days before indomethacin administration. Mice were fasted the night prior to receiving the first dose of indomethacin.
Mice were sacrificed between 9 am and 5 pm. […] Small and large bowel length were also measured. […]

Each structure is given as a SMILES string.

On to `CC[C@H](C)[C@H](NC(=O)[C@H](Cc1ccccc1)NC(=O)[C@H](CC(=O)O)NC(=O)[C@H](CCCNC(=N)N)NC(=O)[C@H](C)NC(=O)[C@H](C)NC(=O)[C@H](CC(C)C)NC(=O)[C@H](CC(N)=O)NC(=O)[C@H](CC(=O)O)NC(=O)[C@H](CC(C)C)NC(=O)[C@@H](NC(=O)[C@@H](NC(=O)[C@H](CC(N)=O)NC(=O)[C@H](CCSC)NC(=O)[C@H](CCC(=O)O)NC(=O)[C@H](CC(=O)O)NC(=O)[C@H](CO)NC(=O)[C@H](Cc1ccccc1)NC(=O)[C@H](CO)NC(=O)CNC(=O)[C@H](CC(=O)O)NC(=O)CNC(=O)[C@@H](N)Cc1c[nH]cn1)[C@@H](C)O)[C@@H](C)CC)C(=O)N[C@@H](CC(N)=O)C(=O)N[C@@H](Cc1c[nH]c2ccccc12)C(=O)N[C@@H](CC(C)C)C(=O)N[C@H](C(=O)N[C@@H](CCC(N)=O)C(=O)N[C@H](C(=O)N[C@@H](CCCCN)C(=O)N[C@H](C(=O)N[C@H](C(=O)N[C@@H](CC(=O)O)C(=O)O)[C@@H](C)O)[C@@H](C)CC)[C@@H](C)O)[C@@H](C)CC` [human [Gly^2]GLP-2], for which, in experiment [1], the “cellular proliferation of the mucosal epithelium of the esophagus (number of BrDU-positive cells)” value is recorded as “significant increases” and the “cellular proliferation of the muscle layer of the esophagus (number of BrDU-positive cells)” value is listed as “significant increases”. The “protein synthesis (total protein content) in esophagus tissue” value with esophagus is on record as “increase”. Further, the “weights of the stomachs” value with stomach is given as “significantly increase”. Besides, in experiment [2] (indomethacin-treated mice, vs saline), the “majority of parameters assessed, especially markers of epithelial damage/inflammation” value is given as “significantly improved”. Moreover, the survival in experiment [2] (treatment groups II-V, indomethacin 7 mg/kg, saline-treated controls 45-50%) is listed as 75-95%.
